One assay concerns melanoma cells (CaCl). Briefly: Northern analysis of survivin mRNA after doxorubicin. In kind it is cell-based, human. The following applies: 0.5 ug/mL doxorubicin, as early as twelve hours. The protocol:
MCF-7 cells were maintained in RPMI-1640 supplemented with 10% fetal bovine serum and 100 units/ml of penicillin and streptomycin. The human melanoma cell line CaCl, and the derivative clone expressing the HPV E6 gene, were cultured as described (Ahn et al., Oncogene). The human osteosarcoma cell lines Saos-2 and U2-OS (kindly provided by Peter Adams, Fox Chase Cancer Center), the murine p21 knock-out fibroblasts (kindly provided by James Sherley, MIT) and the human lung adenocarcinoma cell line H1299 were cultured in DMEM supplemented with 10% fetal bovine serum and 100 units/ml of penicillin and streptomycin. Murine Va15 cells, containing the temperature-sensitive Valine 135 allele of p53, were maintained as described (Wu, et al., Genes & Devel. 7:1126–1132, 1993). All cells were grown at 37° C. […] For treatment with ultra-violet light, cells were irradiated with 0–10 J/m2 (as noted) of UV-C with a Spectroline X series ultraviolet lamp, and output was monitored with a traceable UV light meter (Fisher Scientific). […]
The full-length coding region for survivin was generated by reverse transcription-polymerase chain reaction (RT-PCR) using 5 ug of total RNA from the H1299 human lung adenocarcinoma cell line, using the Access RT-PCR kit (Promega) and the following oligonucleotides: forward 5′ […] […] Autoradiographs were quantitated using NIH image software. […]

The test system of the next assay is CaCl and CaCl/E6. The assay is described as follows: Western analysis of survivin after doxorubicin in melanoma line with or without HPV E6. The format is cell-based, human. The following applies: CaCl versus CaCl/E6, doxorubicin treatment. How it is done:
MCF-7 cells were maintained in RPMI-1640 supplemented with 10% fetal bovine serum and 100 units/ml of penicillin and streptomycin. The human melanoma cell line CaCl, and the derivative clone expressing the HPV E6 gene, were cultured as described (Ahn et al., Oncogene). The human osteosarcoma cell lines Saos-2 and U2-OS (kindly provided by Peter Adams, Fox Chase Cancer Center), the murine p21 knock-out fibroblasts (kindly provided by James Sherley, MIT) and the human lung adenocarcinoma cell line H1299 were cultured in DMEM supplemented with 10% fetal bovine serum and 100 units/ml of penicillin and streptomycin. […] For treatment with ultra-violet light, cells were irradiated with 0–10 J/m2 (as noted) of UV-C with a Spectroline X series ultraviolet lamp, and output was monitored with a traceable UV light meter (Fisher Scientific). For drug treatment, cells were treated with 0.5ug/ml adriamycin (doxorubicin, Sigma), or dilution vehicle alone, for twenty-four hours. p53 induction was monitored by western analysis of 100 ug protein as described (Murphy et al., Genes & Devel. 10:2971–2980, 1996), using 0.1ug/ml DO-1 (Ab-6, Calbiochem) or 421 (Ab-1, Calbiochem.
Western analysis was performed essentially as described (Murphy et al., 1999). […] Protein concentrations were determined using the Bio-Rad Dc Protein Assay (Bio-Rad). […]

As for `COc1cccc2c1C(=O)c1c(O)c3c(c(O)c1C2=O)C[C@@](O)(C(=O)CO)C[C@@H]3O[C@H]1C[C@H](N)[C@H](O)[C@H](C)O1` [adriamycin, doxorubicin], the “mRNA levels for survivin” value in the assay with melanoma cells (CaCl) was “marked decreases in mRNA levels for survivin”. Also, in the assay on CaCl and CaCl/E6, the survivin protein levels entry was “down-regulation of survivin protein levels only in parental CaCl cells”.

(Values after patent publication US7053194B2, “Compositions and methods for p53-mediated repression of gene expression” (Fox Chase Cancer Center, priority 1999, dated 2006).)
